{"source": "patent US12653840B2", "about": "“Methods for production of platelets from pluripotent stem cells and compositions thereof” (Astellas Institute for Regenerative Medicine, priority 2012, dated 2026)", "key": {"[1]": {"system": "cells undergoing in vitro megakaryopoiesis", "assay": "iBET-151 in PVE-HE to MLP differentiation culture, harvest at day 6+4", "format": "cell-based, human", "protocol": "Megakaryocyte progenitor (MLP) numbers harvested at day 6+4 (i.e., day 10 of differentiation) as a function of increasing dose of iBET-151 (in μM). iBET is added to the culture at the 6+3 day time frame, and MLPs are exposed to iBET for a period of about 24 hours prior to their harvest. iBET concentrations: 0 (left bar), 0.1 microM (middle bar), 0.25 microM (right bar). […] CD14+ cell purity in cell population harvested at day 6+4 as a function of increasing dose of iBET-151. iBET concentrations: 0 (left bar), 0.1 microM (middle bar), 0.25 microM (right bar)."}, "[2]": {"system": "GATA-1", "assay": "Relative quantitative mRNA analysis on day 6+4", "format": "cell-based, human", "settings": "0.1 and 0.25 microM", "description": "(§1) FIG. 32. Relative quantitative analysis of mRNA of c-myc and GATA-1 on day 6+4 as a function of increasing dose of iBET-151. iBET concentrations: 0 (left bar), 0.1 microM (middle bar), 0.25 microM (right bar) for each triplet."}, "[3]": {"system": "c-myc", "assay": "Relative quantitative mRNA analysis on day 6+4", "format": "cell-based, human", "settings": "0.1 and 0.25 microM", "description": "as §1"}, "[4]": {"system": "human and murine MLL-fusion leukemic cell lines", "settings": "through induction of early cell cycle arrest and apoptosis; cited from earlier work"}, "[5]": {"system": "iPS derived megakaryocytes", "assay": "Platelet formation in static culture with MMP inhibitors", "format": "cell-based, human", "description": "FIG. 27. Platelet purity as a result of static culture in the presence of MMP8 specific inhibitor MMP8-I (second bar), pan-MMP inhibitor GM6001 (third bar), or the combination of MMP8-I and GM6001 (fourth bar). The MMP8-I is (3R)-(+)-[2-(4-Methoxybenzenesulfonyl)-1,2,3,4-tetrahydroisoquinoline-3-hydroxamate], and it is commercially available from Millipore. The first bar is the control.\nFIG. 28. Platelets numbers as a result of static culture in the presence of MMP8 specific inhibitor MMP8-I (second bar), pan MMP inhibitor GM6001 (third bar), or the combination of MMP8-I and GM6001 (fourth bar). The first bar is the control.\nThe peak of platelet production is determined by measuring platelet content in the culture, for example on a daily basis for several days. It is typically 4-7 days after the beginning of the MLP differentiation culture period, although it may be longer or it may be shifted."}, "[6]": {"system": "MKs derived from HA-iPS", "assay": "Platelet generation from MKs under constant shear force in a microfluidic device", "format": "cell-based, human", "procedure": "Matured MKs, derived from HA-iPS and MA09 hES lines, were used. Equal numbers of MKs suspended in MK-specific medium were loaded into a microfluidic device in the presence or absence of 20 μM MMP inhibitor GM6001. Constant shear force was applied to the MKs throughout the culture period. MK-medium downstream of MKs was collected at 30 minute intervals for a period of 6 hours. Platelet number and purity (i.e., percentage of total cells that are CD41a^+CD42b^+) in the collected media were measured using flow cytometer.\nFIGS. 22-24 provide the results of platelet generation from MKs derived from HA-iPS. The platelets were generated under a constant shear force defined by a flow rate of […] μl/min. […] Purity is expressed at the percentage of total harvested cells that are CD41a+CD42b+."}, "[7]": {"system": "CD42b", "settings": "reported; cited from earlier work"}, "[8]": {"system": "developing mouse platelet thrombus", "assay": "In vivo thrombus formation after laser-induced cremaster arteriolar wall injury, intravital microscopy", "parameters": "species or system macrophage-depleted NOD/SCID mice", "settings": "platelets pretreated with ReoPro", "procedure": "Third, hiPSC-PLTs were analyzed for functionality using an in vivo assay system measuring thrombus formation in macrophage-depleted NOD/SCID mice. Briefly, intravital microscopy of cremaster muscle arterioles was performed as previously described (Cell Research 2011 21:530-45). Macrophage-depleted NOD/SCID mice were anesthetized by intraperitoneal injection of ketamine (125 mg/kg) and xylazine (25 mg/kg). A tracheal tube was inserted and the mouse was placed on a thermo-controlled blanket. After incision of the scrotum, the cremaster muscle was exteriorized onto an intravital microscopy tray. The muscle preparation was superfused with thermo-controlled (37° C.) and aerated (95% N2, 5% CO2) bicarbonate-buffered saline throughout the experiment. The cremaster muscle arteriolar wall was injured by micropoint laser ablation using a Micropoint Laser System (Photonics Instruments). […] Fluorescence and brightfield images were recorded using an Olympus BX61W microscope with a 60 x/1.0 NA water immersion objective and a high speed camera (Hamamatsu C9300) through an intensifier (Video Scope International). Data were collected for 5 min following vessel wall injury and analyzed using Slidebook v5.0 (Intelligent Imaging Innovations)."}}, "note": "“Also recorded” adds a separate entry of the source.", "data": [{"molecule": "COc1cc2c(cc1-c1c(C)noc1C)ncc1[nH]c(=O)n([C@H](C)c3ccccn3)c12", "note": "[i-BET-151]", "values": [{"measurement": "number of CD14+ myeloid cells", "setting": "[1]; 0.1 and 0.25 microM, day 6+4", "value": "dose-dependent decrease"}, {"measurement": "apoptosis", "setting": "[1]; high dose", "value": "triggers massive apoptosis"}, {"measurement": "numbers of MK progenitors", "setting": "[1]; lower doses in the micromolar (or submicromolar) range, 0.1 and 0.25 microM, about 24 hours", "value": "increased numbers"}, {"measurement": "GATA1 gene expression (mRNA)", "setting": "[2]", "value": "up-regulated"}, {"measurement": "c myc gene expression (mRNA)", "setting": "[3]", "value": "dose:-dependent inhibition"}, {"measurement": "efficacy against MLL-fusion leukemic cell lines", "setting": "[4]", "value": "profound efficacy"}]}, {"molecule": "COc1ccc(S(=O)(=O)N2Cc3ccccc3C[C@@H]2C(=O)NO)cc1", "note": "[MMP8 specific inhibitor, (3R)-(+)-[2-(4-Methoxybenzenesulfonyl)-1,2,3,4-tetrahydroisoquinoline-3-hydroxamate]]", "values": [{"measurement": "purity of iPS-derived platelets (CD41a+CD42b+)", "setting": "[5]; added at peak of platelet production of MKs, static culture, control 43.7%", "value": 65.5, "unit": "%"}, {"measurement": "potency in protecting platelet function", "setting": "[5]; comparative study of several specific MMP inhibitors", "value": "more potency than GM6001"}, {"measurement": "CD41a+CD42b+ platelets produced, compared to GM6001", "setting": "[5]; static culture", "value": "Significantly more"}, {"measurement": "purity, more than obtained from GM6001-treated cultures", "setting": "[5]; static culture", "value": "approximately 10%"}]}, {"molecule": "dextran", "values": [{"measurement": "platelet formation", "setting": "[6]; 8% dextran added to increase viscosity of culture medium, with GM6001, shear force", "value": "negative impact"}]}, {"molecule": "CNC(=O)[C@H](Cc1c[nH]c2ccccc12)NC(=O)[C@@H](CC(=O)NO)CC(C)C", "note": "[GM6001]", "values": [{"measurement": "platelet purity (percentage of total harvested cells that are CD41a+CD42b+)", "setting": "[6]; 20 μM, added at beginning of culture, constant shear force, vs DMSO", "value": "significantly improved"}, {"measurement": "platelet yield / platelet numbers", "setting": "[6]; 20 μM, constant shear force, vs DMSO", "value": "significantly improved; also recorded: significantly more platelets"}, {"measurement": "CD42b shedding from platelets", "setting": "[7]", "value": "inhibit CD42b shedding"}]}, {"molecule": "ReoPro: Fab fragment of a human-murine chimeric monoclonal antibody that binds specifically to αIIbβIII and inhibits platelet function (antibody, chains of the INN, looked up, V domains shown, Fab) VH: EVQLQQSGTVLARPGASVKMSCEASGYTFTNYWMHWVKQRPGQGLEWIGAIYPGNSDTSYIQKFKGKAKLTAVTSTTSVYMELSSLTNEDSAVYYCTLYDGYYVFAYWGQGTLVTVSA VL: EIVLTQSPVTLSVTPGDSVSLSCRASRDISNNLHWFQQTSHESPRLLIKYASQSMSGIPSRFSGSGSGTDFTLSINSVETEDFGMYFCQQTNSWPYTFGGGTKLEIK", "values": [{"measurement": "number of platelets bound to / incorporating in the thrombus after ReoPro pretreatment", "setting": "[8]", "value": "inhibited; also recorded: markedly reduced"}]}]}
